In patent publication US8207329B2, “Synthesis of chlorins and phorbines with enhanced red spectral features” (North Carolina State University, priority 2005, dated 2012):
“And” between values parts separate entries of the source, which are not always exact repeats. Equal values may be shown once. Read-outs that look alike come from different tables or passages of the source.

How the values were obtained:
[1] = Stability on storage and handling; assay type: physicochemical; conditions: for decomposes almost completely in solution within: in solution (such as in ethyl acetate or chlorinated solvent) even at 0° C.; for powdered solid stored without decomposition: in the refrigerator
[2] = Absorption spectra obtained in toluene at room temperature; assay type: physicochemical; conditions: for ΔνQy: redshift relative to the parent chlorin (ZnC or Zn—M^10), toluene; for Qy band / B/Qy band intensity ratio: toluene at room temperature; for Qy band: normalized at the B bands
From the text: (§1) Absorption Spectra. The spectral properties of interest in the chlorins include the position of the long-wavelength Qy transition, the intensity of the Qy transition, and the fluorescence quantum yield of the chlorin. The intensity of the Qy transition can be assessed by the measured molar absorption coefficient; however, comparisons of such values are somewhat unreliable given the experimental variability encountered upon handling small quantities of materials. A better comparison is achieved by examination of the ratio of the intensities of the B and Qy bands for a given compound (B/Qy ratio), which is determined simply by absorption spectroscopy without requiring determination of the molar absorption coefficient. For a wide variety of applications, bathochromic and hyperchromic shifts of the Qy band are desired (i.e., shifted to longer wavelength and intensified), thereby affording strong absorption in the deep-red region.
General. ^1H NMR (400 MHz) and ^13C NMR (75 MHz) spectra were collected at room temperature in CDCl3. Absorption spectra were obtained in toluene at room temperature. Chlorins were analyzed by laser desorption mass spectrometry (LD-MS) in the absence of a matrix. Fast atom bombardment mass spectrometry (FAB-MS) data are reported for the molecule ion or protonated molecule ion. Melting points are uncorrected. All commercially available materials were used as received. All palladium-coupling reactions were carried out using standard Schlenk-line techniques.
as §1, with “B. Absorption” for “Absorption”, “Spectroscopy.” for “Spectra.”, “increased” for “intensified), thereby affording strong absorption”, “intensity).” for “the deep-red region.”
General. ^1H NMR (400 MHz) and ^13C NMR (75 MHz) spectra were collected at room temperature in CDCl3 unless noted otherwise. Absorption spectra were obtained in toluene at room temperature. Chlorins were analyzed by laser desorption mass spectrometry (LD-MS) in the absence of a matrix. Metalation of free base chlorins was monitored by fluorescence spectroscopy. Melting points are uncorrected. All commercially available materials were used as received.

[3] = cited from earlier work; for Qy band / εQy: chlorophylls; for Qy band: FIG. 3, in diethyl ether at room temperature; for εQy: Strain and Svec (FIG. 3)
[4] = Table 3, zinc chlorins in toluene at room temperature
[5] = figure legends (FIG. 1, 2, 4, 5)
[6] = Table 1, literature value, in diethyl ether
[7] = Table 3, Ref Jones et al., in diethyl ether
[8] = Table 1, in toluene at room temperature

Compound: CC(=O)CC(C)(C)C(Cc1ccc[nH]1)[N+](=O)[O-] (stereo not drawn) [compound 19, 4,4-Dimethyl-5-nitro-6-(1H-pyrrol-2-yl)hexan-2-one]
- colour change from yellow to black indicating partial decomposition ([1]; neat or in solution, at room temperature): 1 to 2 days

Compound: CC(=O)c1cc2[n]3c1C=C1CC(C)(C)C(=N1)C=c1ccc([n]1[Zn]3)=CC1=NC(=C2c2c(C)cc(C)cc2C)C=C1 [ZnC-M^10A^13, Zn(II)-13-Acetyl-17,18-dihydro-10-mesityl-18,18-dimethylporphyrin]
- ΔνQy ([2]; Table 3): 680 cm⁻¹
- B/Qy ratio [2, 4]: 2.2
- λmax (nm), B [2, 4]: 418 nm
- λmax (nm), Qy [2, 4]: 632 nm
- Qy band ([2]; figure legends (FIG. 4, 5)): 632

Compound: C=Cc1c(C)c2cc3nc(c4c5[n-]c(cc6nc(cc1[n-]2)C(C=O)=C6CC)c(C)c5C(=O)[C@@H]4C(=O)OC)[C@@H](CCC(=O)OC/C=C(\C)CCC[C@H](C)CCC[C@H](C)CCCC(C)C)[C@@H]3C.[Mg+2] [chlorophyll b]
- Qy band [3]: 642 nm and 644 nm
- εQy [3]: 56,100 M^−1cm^−1

Compound: Cc1cc(C)c(C2=c3cc(C#C[Si](C(C)C)(C(C)C)C(C)C)c4[n]3[Zn][n]3c(cc(C#C[Si](C(C)C)(C(C)C)C(C)C)c3C=C3C=CC2=N3)C=C2N=C(C=4)CC2(C)C)c(C)c1 [ZnC-E^3M^10E^13, Zn(II)-3,13-Bis[2-(triisopropylsilyl)ethynyl]-17,18-dihydro-10-mesityl-18,18-dimethylporphyrin]
- ΔνQy ([2]; Table 3): 1020 cm⁻¹
- B/Qy ratio [2, 4]: 1.6
- λmax (nm), Qy [2, 4]: 646 nm
- Qy band [2, 5]: 646 nm

Compound: C=Cc1c(C)c2cc3nc(c4c5[n-]c(cc6nc(cc1[n-]2)C(C)=C6CC)c(C)c5C(=O)[C@@H]4C(=O)OC)[C@@H](CCC(=O)OC/C=C(\C)CCC[C@H](C)CCC[C@H](C)CCCC(C)C)[C@@H]3C.[Mg+2] [chlorophyll a]
- B/Qy intensity ratio [3, 6]: 1.3
- λmax (nm), B [3, 6]: 430 nm
- λmax (nm), Qy [3, 6]: 662 nm
- B band ([3]; chlorophyll a, text (FIG. 3)): 430 nm
- Qy band [3]: 662 nm
- εQy [3]: 86,300 M^−1cm^−1

Compound: Zn(II)-3-(2-(Triisopropylsilyl)ethynyl)-17,18-dihydro-10-mesityl-18,18-dimethylporphyrin [ZnC-E^3M^10]
- ΔνQy ([2]; Table 3): 550 cm⁻¹
- B/Qy ratio [2, 4]: 2.3
- λmax (nm), B [2, 4]: 416 nm
- λmax (nm), Qy [2, 4]: 627 nm

Compound: CC(C)[Si](C#Cc1cc2[n]3c1C=C1CC(C)(C)C(=N1)C=c1cc(C#C[Si](C(C)C)(C(C)C)C(C)C)c([n]1[Zn]3)=CC1=NC(=C2)C=C1)(C(C)C)C(C)C [ZnC-E^3E^13]
- ΔνQy ([2]; Table 3): 1080 cm⁻¹
- B/Qy ratio [2, 4]: 1.4
- λmax (nm), B [2, 4]: 421 nm
- λmax (nm), Qy [2, 4]: 645 nm
- Qy band ([2]; figure legends (FIG. 4, 5)): 645

Compound: CC(=O)c1cc2[n]3c1C=C1CC(C)(C)C(=N1)C=c1cc(C#C[Si](C(C)C)(C(C)C)C(C)C)c([n]1[Zn]3)=CC1=NC(=C2c2c(C)cc(C)cc2C)C=C1 [ZnC-E^3M^10A^13, Zn(II)-13-Acetyl-3-[2-(triisopropylsilyl)ethynyl]-17,18-dihydro-10-mesityl-18,18-dimethylporphyrin]
- ΔνQy ([2]; Table 3): 1160 cm⁻¹
- B/Qy ratio [2, 4]: 1.5
- λmax (nm), B [2, 4]: 428 nm
- λmax (nm), Qy [2, 4]: 652 nm
- Qy band ([2]; figure legend (FIG. 4)): 652
- B/Qy band intensity ratio ([2]; figure legends (FIG. 4, 5)): 1.5

Compound: CC(=O)c1cc2[n]3c1C=C1CC(C)(C)C(=N1)C=c1cc(C#C[Si](C(C)C)(C(C)C)C(C)C)c([n]1[Zn]3)=CC1=NC(=C2)C=C1 [ZnC-E^3A^13]
- ΔνQy ([2]; Table 3): 1320 cm⁻¹
- B/Qy ratio [2, 4]: 1.2
- λmax (nm), B [2, 4]: 428 nm
- λmax (nm), Qy [2, 4]: 655 nm
- Qy band [2, 5]: 655 nm
- B/Qy band intensity ratio ([2]; figure legends (FIG. 4, 5)): 1.2

Compound: Cc1cc(C)c(C(c2ccc(C=O)[nH]2)c2cc(Br)c(Br)[nH]2)c(C)c1 (stereo not drawn) [compound 16, 8,9-Dibromo-1-formyl-5-mesityldipyrromethane]
- decomposes almost completely in solution within [1]: 18 to 20 h
- powdered solid stored without decomposition [1]: 5 to 7 days

Compound: C=Cc1cc2[n]3c1C=C1C=CC(=N1)C(c1c(C)cc(C)cc1C)=c1ccc([n]1[Zn]3)=CC1=NC(=C2)C(C)(C)C1 [ZnC-V^3M^10, Zn(II)-17,18-Dihydro-10-mesityl-18,18-dimethyl-3-vinylporphyrin]
- ΔνQy ([2]; Table 3): 400 cm⁻¹
- B/Qy ratio [2, 4]: 3.3
- λmax (nm), B [2, 4]: 413 nm
- λmax (nm), Qy [2, 4]: 621 nm

Compound: pheophytin a
- B/Qy intensity ratio [3, 6]: 2.1
- Log ε (M^−1cm^−1) (Qy band) [3, 6]: 5.12
- λmax (nm), B [3, 6]: 408 nm
- λmax (nm), Qy [3, 6]: 667 nm

Compound: O=Cc1ccc(Cc2cc(Br)c(Br)[nH]2)[nH]1 [compound 14, 8,9-Dibromo-1-formyldipyrromethane]
- powdered solid stored without decomposition [1]: 2-3 weeks

Compound: CCCCB(CCCC)n1c(C(=O)c2ccc(C)cc2)ccc1C(c1ccc[nH]1)c1c(C)cc(C)cc1C (stereo not drawn) [Bu2B-3, 10-(Dibutylboryl)-5-mesityl-1-p-toluoyldipyrromethane]
- stability (in words) [1]: decomposes partially at room temperature

Compound: C=Cc1c(C)c2cc3nc(c4c5[n-]c(cc6nc(cc1[n-]2)C(C=O)=C6CC)c(C)c5C(=O)[C@@H]4C(=O)OC)[C@@H](CCC(=O)OC/C=C(\C)CCC[C@H](C)CCC[C@H](C)CCCC(C)C)[C@@H]3C.[Zn+2] [Zn-chlorophyll b]
- B/Qy intensity ratio [3, 6]: 2.9
- λmax (nm), B [3, 6]: 446 nm
- λmax (nm), Qy [3, 6]: 634 nm
- B/Qy ratio [3, 7]: 2.9
- λmax (nm), B [3, 7]: 446 nm
- λmax (nm), Qy [3, 7]: 634 nm

Compound: Cc1cc(C)c(C2=c3cc(C#C[Si](C(C)C)(C(C)C)C(C)C)c4[n]3[Zn][n]3c(ccc3C=C3N=C(C=4)CC3(C)C)C=C3C=CC2=N3)c(C)c1 [ZnC-M^10E^13, Zn(II)-13-[2-(Triisopropylsilyl)ethynyl]-17,18-dihydro-10-mesityl-18,18-dimethylporphyrin]
- ΔνQy ([2]; Table 3): 530 cm⁻¹
- B/Qy ratio [2, 4]: 2.3
- λmax (nm), B [2, 4]: 412 nm
- λmax (nm), Qy [2, 4]: 626 nm

Compound: Cc1ccc(C2=c3ccc4[n]3[Zn][n]3c(cc(Br)c3C=C3CC(C)(C)C(=N3)C=4)C(c3c(C)cc(C)cc3C)=C3C=CC2=N3)cc1 [Zn-6, Zn(II)-13-Bromo-17,18-dihydro-10-mesityl-18,18-dimethyl-5-p-tolylporphyrin]
- B/Qy intensity ratio [2, 8]: 4.0
- Log ε (M^−1cm^−1) (Qy band) [2, 8]: 4.65 M^−1cm^−1
- λmax (nm), B [2, 8]: 414 nm
- λmax (nm), Qy [2, 8]: 616 nm

Compound: Cc1ccc(C(=O)c2ccc(C(c3cc(Br)c(Br)[nH]3)c3c(C)cc(C)cc3C)[nH]2)cc1 (stereo not drawn) [compound 4, 8,9-Dibromo-5-mesityl-1-(4-methylbenzoyl)dipyrromethane]
- decomposes almost completely in solution within [1]: 8 to 10 h
- decomposed almost completely in solution within ([1]; purified compound in solution even at 0° C.): 8 to 10 h
- powdered solid stable on storage without decomposition ([1]; storage at −10° C.): 1 to 2 days

Compound: CC(=O)c1cc2[n-]c1cc1nc(cc3ccc([n-]3)c(-c3ccc(C)cc3)c3nc(c2-c2c(C)cc(C)cc2C)C=C3)C(C)(C)C1.[Cu+2] [Cu-8, Cu(II)-13-Acetyl-17,18-dihydro-10-mesityl-18,18-dimethyl-5-p-tolylporphyrin]
- B/Qy intensity ratio [2, 8]: 3.1
- Log ε (M^−1cm^−1) (Qy band) [2, 8]: 4.69 M^−1cm^−1
- λmax (nm), B [2, 8]: 420 nm
- λmax (nm), Qy [2, 8]: 631 nm
